Where “and” joins values, the source holds several entries; their conditions need not be identical. Equal entries are not always repeated. Where two headings read alike, the source gives them in different places.
Key:
mouse GPR139 = molecular target: T1, mouse GPR139 (Mus musculus, UniProt Q80UC8); experiment: GTPγS binding dose response study, mouse GPR139 co-transfected with GO2Q into COS7 cells; assay type: biochemical; conditions: mouse GPR139, FIG. 2C and 2D
T1 construct: expressed in transfected cells; host or cells: COS7 (membranes)
T1 sequence (Q80UC8 1-345): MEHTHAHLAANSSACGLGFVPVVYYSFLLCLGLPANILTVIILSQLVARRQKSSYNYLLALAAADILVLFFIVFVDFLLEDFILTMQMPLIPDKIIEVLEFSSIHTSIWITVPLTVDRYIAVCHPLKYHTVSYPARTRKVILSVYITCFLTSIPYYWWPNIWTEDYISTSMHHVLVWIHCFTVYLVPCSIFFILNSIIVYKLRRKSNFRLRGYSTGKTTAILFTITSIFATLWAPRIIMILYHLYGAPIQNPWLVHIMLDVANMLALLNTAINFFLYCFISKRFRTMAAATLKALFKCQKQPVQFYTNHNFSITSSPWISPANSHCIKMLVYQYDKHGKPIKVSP
Excerpt: (§1) FIG. 2-FIG. 2F: Tryptophan, phenylalanine, and their derivatives activate GPR139. Human (FIG. 2A and FIG. 2B) or mouse (FIG. 2C and FIG. 2D) GPR139 were co-transfected with chimeric G-protein GO2Q into COS7 cells. Cell membranes from transfected cells were used in GTPγS binding studies using various ligands at different concentrations to stimulate GPR139. FIG. 2E and FIG. 2F show control experiments in the dose response studies of Example 1.

GPR139 [1] = molecular target: T2, GPR139 (Homo sapiens, UniProt Q6DWJ6); experiment: GTPγS binding dose response study, human GPR139 co-transfected with GO2Q into COS7 cells; assay type: biochemical; parameters: expressed in transfected cells; host or cells: COS7 (membranes); conditions: human GPR139, FIG. 2A and 2B
T2 sequence (Q6DWJ6 1-353): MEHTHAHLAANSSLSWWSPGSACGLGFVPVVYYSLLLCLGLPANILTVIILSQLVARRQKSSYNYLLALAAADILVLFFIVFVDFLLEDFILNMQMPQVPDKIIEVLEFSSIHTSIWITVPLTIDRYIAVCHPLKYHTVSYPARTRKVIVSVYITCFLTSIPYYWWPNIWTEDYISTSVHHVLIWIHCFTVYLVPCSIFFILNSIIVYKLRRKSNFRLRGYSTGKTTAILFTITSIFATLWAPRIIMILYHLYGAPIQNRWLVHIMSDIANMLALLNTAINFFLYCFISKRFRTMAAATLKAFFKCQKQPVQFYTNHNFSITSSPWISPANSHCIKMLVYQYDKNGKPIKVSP
Excerpt: as §1

GPR139 [2] = molecular target: T2, GPR139; experiment: Calcium mobilization assay (FLIPR), GPR139 expressed in HEK293 cells; assay type: cell-based; parameters: expressed in transfected cells; host or cells: HEK293 (transient); conditions: similar to GTPγS binding studies
Protocol: FIG. 3A and FIG. 3B: Provides the results of experiments conducted to determine whether Trp and its derivatives (FIG. 3A) and Phe and its derivatives (FIG. 3B) stimulate Ca^2+ mobilization in HEK293 cells expressing GPR139.
The active compounds were also tested in a calcium mobilization assay (FLIPR® assay). For these experiments human GPR139 was transiently expressed in HEK293 cells and calcium mobilization was stimulated using L-Trp, L-Phe or their derivatives. […] The concentrations of L-Trp and L-Phe in many cell culture media (for instance DMEM is about 80 μM and 750 μM respectively) are close to the EC50 values of L-Trp and L-Phe for GPR139. […] This may explain why GPR139 appeared constitutively active when recombinantly expressed in mammalian cells.
About 300 additional phenylalanine analogues have been tested for GPR139 activation using a calcium mobilization (FLIPR®) assay. The results of these experiments indicate that many of these analogues can also activate GPR139. Table 4 lists certain phenylalanine analogues that have been determined to activate GPR139 by calcium mobilization at a concentration of 300 μM (calcium mobilization is expressed as percentage of that observed for L-phenylalanine).

GO2Q alone = experiment: GTPγS binding assay, control COS7 membranes expressing GO2Q alone (Ct-GO2Q); assay type: biochemical
Protocol: (§2) In order identify the ligands for GPR139 two improvements in the detection assay were made to allow for the ligands to be detected. First, we chose to use a GTPγS binding assay instead of using live cultured cells. The GTPγS binding assay is a cell free system that uses the cell membrane of the cell(s) of interest rather than the live cell(s). One advantage of this assay is that potential ligands present in the cell culture media are washed away when the cell membrane is prepared. This reduces the basal level of signal and increase the chance of detecting receptor ligands when assessing compounds that activate the receptor. Second, a GO2Q chimeric G-protein was created to be co-expressed with GPR139 in order to increase the signal-to-noise ratio in the GTPγS binding assay. Historically, the Gi, Go coupled GPCRs offer much greater signal-to-noise ratio in GTPγS binding studies. For Gs and Gq coupled GPCRs, although ligand-stimulated specific signals can be detected in a GTPγS binding assay, the signal-to-noise ratios are often very small. To address this a chimeric GO2-Gq chimeric G-protein, GO2Q, with the N-terminus from Go2 protein and the C-terminus from Gq protein.
(§3) To test for compounds that activate GPR139, different amino acids and their derivatives (Table 2) were tested as ligands in the GTPγS binding assay using cell membranes from COS7 cells co-expressing GPR139 and GO2Q. Cell membrane from COS7 cells expressing GO2Q alone or co-expressing other GPCRs were also tested in GTPγS binding assay in parallel as controls. Each compound was tested in triplicate.

GPR139 [3] = molecular target: T2, GPR139; experiment: GTPγS binding assay, single-concentration screen, COS7 membranes co-expressing GPR139 and GO2Q; assay type: biochemical; parameters: expressed in transfected cells; host or cells: COS7 (membranes); conditions: 1 mM final concentration; COS7 membranes co-expressing GPR139 and GO2Q; single wells of triplicate
Protocol: as §2, §3

[4] = 1 mM final concentration, COS7 membranes expressing GO2Q alone, single wells of triplicate

Row | SMILES | Activation levels (GTPγS binding), Ct-GO2Q (GO2Q alone; [4]) | Activation levels of GPR139 (GTPγS binding), GPR139-GO2Q (GPR139 [3]) | other results
1 | Cn1cc(C[C@@H](N)C(=O)O)c2ccccc21 [1-methy-D-Try, 1-methyl-D-Trp] | – | – | Dose-responsive activation of GPR139 (GTPγS binding) (mouse GPR139): specifically activate GPR139 in a dose-responsive manner; Dose-responsive activation of GPR139 (GTPγS binding) (GPR139 [1]): specifically activate GPR139 in a dose-responsive manner; Potency in calcium mobilization relative to L-Trp and L-Phe (GPR139 [2]): higher potencies
2 | Cn1cc(C[C@H](N)C(=O)O)c2ccccc21 [1-methy-L-Trp, 1-methyl-L-Trp] | – | – | Dose-responsive activation of GPR139 (GTPγS binding) (mouse GPR139): specifically activate GPR139 in a dose-responsive manner; Dose-responsive activation of GPR139 (GTPγS binding) (GPR139 [1]): specifically activate GPR139 in a dose-responsive manner; Potency in calcium mobilization relative to L-Trp and L-Phe (GPR139 [2]): higher potencies
3 | C[C@H](N)C(=O)O [Ala] | 1903 and 2049 and 2139 | 2363 and 2348 and 2439 | –
4 | N=C(N)NCCC[C@H](N)C(=O)O [Arg] | – | 2806 and 2783 and 2528 | Activation levels (GTPγS binding), Ct-GO2Q (GO2Q alone): 2171 and 2131 and 2255
5 | NC(=O)C[C@H](N)C(=O)O [Asn] | 2195 and 2142 and 2133 | 2806 and 2483 and 2547 | –
6 | N[C@@H](CC(=O)O)C(=O)O [Asp] | 2177 and 2137 and 2132 | 2758 and 2922 and 2925 | –
7 | N[C@@H](CS)C(=O)O [Cys] | 1928 and 2132 and 2114 | 2168 and 2458 and 2336 | –
8 | N[C@@H](CSSC[C@H](N)C(=O)O)C(=O)O [Cystine] | 2242 and 2149 and 2229 | 2501 and 2652 and 2258 | –
9 | N[C@H](Cc1ccccc1)C(=O)O [D-Phe, D-phenylalanine] | – | – | Dose-responsive activation of GPR139 (GTPγS binding) (mouse GPR139): specifically activate GPR139 in a dose-responsive manner; Dose-responsive activation of GPR139 (GTPγS binding) (GPR139 [1]): specifically activate GPR139 in a dose-responsive manner
10 | N[C@H](Cc1c[nH]c2ccccc12)C(=O)O [D-Trp, D-tryptophan] | – | – | Dose-responsive activation of GPR139 (GTPγS binding) (mouse GPR139): specifically activate GPR139 in a dose-responsive manner; Dose-responsive activation of GPR139 (GTPγS binding) (GPR139 [1]): specifically activate GPR139 in a dose-responsive manner
11 | NCCc1ccc(O)c(O)c1 [DA] | 2250 and 2213 and 2319 | 2688 and 2825 and 2708 | –
12 | NC(=O)CC[C@H](N)C(=O)O [Gln] | 2181 and 2327 and 2336 | 2583 and 2525 and 2766 | –
13 | N[C@@H](CCC(=O)O)C(=O)O [Glu] | 2242 and 2310 and 2311 | 2847 and 2837 and 2841 | –
14 | NCC(=O)O [Gly] | 1936 and 2133 and 2289 | 2560 and 2505 and 2414 | –
15 | NCCc1c[nH]cn1 [HA, histamine] | 2186 and 2204 and 2199 | 2737 and 2863 and 2899 | –
16 | O=C(O)[C@@H]1C[C@@H](O)CN1 [HO-Pro] | 2166 and 2152 and 2189 | 2825 and 2797 and 3109 | –
17 | N[C@@H](Cc1c[nH]cn1)C(=O)O [His] | 2308 and 2259 and 2197 | 2640 and 2499 | –
18 | CC[C@H](C)[C@H](N)C(=O)O [Ile] | 2266 and 2222 and 2253 | 2760 and 2542 and 2903 | –
19 | CC(C)C[C@H](N)C(=O)O [Leu] | 2194 and 2213 and 2167 | 2621 and 2544 and 2437 | –
20 | NCCCC[C@H](N)C(=O)O [Lys] | 2400 and 2138 and 2041 | 2433 and 2617 and 2589 | –
21 | CSCC[C@H](N)C(=O)O [Met] | 2173 and 2307 and 2276 | 2657 and 2829 and 2802 | –
22 | NCC(O)c1ccc(O)cc1 (stereo not drawn) [Octopamine] | 2087 and 2140 and 2142 | 2554 and 2675 and 2831 | –
23 | O=C(O)[C@@H]1CCCN1 [Pro] | 2256 and 2235 and 2329 | 2719 and 2657 and 2786 | –
24 | N[C@@H](CO)C(=O)O [Ser] | 1975 and 2036 and 2164 | 2605 and 2458 and 2545 | –
25 | NCCc1c[nH]c2ccc(O)cc12 [Seretonin] | 2356 and 2154 and 2332 | 2839 and 2852 and 2920 | –
26 | C[C@@H](O)[C@H](N)C(=O)O [Thr] | 2210 and 2213 and 2008 | 2547 and 2507 and 2558 | –
27 | N[C@@H](Cc1ccc(O)cc1)C(=O)O [Tyr] | 2192 and 2191 and 2186 | 2752 and 2715 and 2921 | –
28 | NCCc1ccc(O)cc1 [Tyramine] | 2132 and 2277 and 2369 | 2883 and 2932 and 2873 | –
29 | CC(C)[C@H](N)C(=O)O [Val] | 2072 and 2083 and 1977 | 2632 and 2689 and 2533 | –

Reference: patent publication US20140336216A1, “PHYSIOLOGICAL LIGANDS FOR GPR139” (Janssen Pharmaceutica NV, priority 2013, published 2014)
